The source of these data is ChEMBL document CHEMBL1909046, “DrugMatrix in vitro pharmacology data”.

The structures appear in SMILES notation.

Chain of Mitogen-activated protein kinase 3 (P27361 whole entry): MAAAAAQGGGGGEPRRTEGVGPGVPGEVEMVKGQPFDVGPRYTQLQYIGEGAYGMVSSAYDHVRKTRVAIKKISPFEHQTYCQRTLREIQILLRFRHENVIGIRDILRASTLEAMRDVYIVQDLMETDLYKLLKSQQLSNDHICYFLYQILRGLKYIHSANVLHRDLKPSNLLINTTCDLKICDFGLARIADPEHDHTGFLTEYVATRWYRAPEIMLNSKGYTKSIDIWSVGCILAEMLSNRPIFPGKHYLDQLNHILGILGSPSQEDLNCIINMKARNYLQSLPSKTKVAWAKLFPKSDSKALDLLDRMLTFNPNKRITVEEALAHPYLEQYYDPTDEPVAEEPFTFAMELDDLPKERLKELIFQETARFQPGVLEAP

Tested on in one assay: not listed separately
Put plainly: DRUGMATRIX: Sodium/nucleoside co-transporter radioligand binding (ligand: nitrobenzylthioinosine). Conditions: Not Active = under 50% inhibition at 10 µM. Type of assay: cell membranes, Cavia porcellus, Dunkin-Hartley, Cerebral cortex, Membrane.
Regarding `O=S(=O)([O-])CCS.[Na+]` [MESNA], the IC50 entry is on record as “Not Active” and the Ki result is “Not Active”.
Take `C#C[C@]1(O)CC[C@H]2[C@@H]3CCc4cc(OC)ccc4[C@H]3CC[C@@]21C` [MESTRANOL]: the IC50 entry is “Not Active” and the Ki entry was “Not Active”.
On to `CC(=O)Nc1cccc(O)c1` [METACETAMOL], for which the IC50 entry is on record as “Not Active” and the Ki entry is on record as “Not Active”.
Turning to `Cc1ncc([N+](=O)[O-])n1CCO` [METRONIDAZOLE], the IC50 entry is recorded as “Not Active” and the Ki result was “Not Active”.
`CC(C)(C(=O)c1cccnc1)c1cccnc1` [METYRAPONE]: the IC50 result was “Not Active” and the Ki result is reported as “Not Active”.

For the next assay, the target named is Aldo-keto reductase family 1 member B1 (Rattus norvegicus, UniProt P07943). In words: biochemical.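 Also: inhibition of aldose reductase enzyme activity, measured with DL-glyceraldehyde as the substrate; in other assays of this panel Not Active means under 50% inhibition at 10 µM.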
Details: not given
The format is tissue-based, Lens of camera-type eye.
As for `O=S(=O)([O-])CCS.[Na+]` [MESNA], the IC50 result is “Not Active”.
With `C#C[C@]1(O)CC[C@H]2[C@@H]3CCc4cc(OC)ccc4[C@H]3CC[C@@]21C` [MESTRANOL], the IC50 entry was “Not Active”.
For `CC(=O)Nc1cccc(O)c1` [METACETAMOL], the IC50 entry is “Not Active”.
With `Cc1ncc([N+](=O)[O-])n1CCO` [METRONIDAZOLE], the IC50 result is recorded as “Not Active”.
Turning to `CC(C)(C(=O)c1cccnc1)c1cccnc1` [METYRAPONE], the IC50 entry is “Not Active”.

For a further assay, the target named is T1, Type-2 angiotensin II receptor (Homo sapiens, UniProt P50052). Also: in other assays of this panel Not Active means under 50% inhibition at 10 µM.
T1 sequence (P50052 whole entry): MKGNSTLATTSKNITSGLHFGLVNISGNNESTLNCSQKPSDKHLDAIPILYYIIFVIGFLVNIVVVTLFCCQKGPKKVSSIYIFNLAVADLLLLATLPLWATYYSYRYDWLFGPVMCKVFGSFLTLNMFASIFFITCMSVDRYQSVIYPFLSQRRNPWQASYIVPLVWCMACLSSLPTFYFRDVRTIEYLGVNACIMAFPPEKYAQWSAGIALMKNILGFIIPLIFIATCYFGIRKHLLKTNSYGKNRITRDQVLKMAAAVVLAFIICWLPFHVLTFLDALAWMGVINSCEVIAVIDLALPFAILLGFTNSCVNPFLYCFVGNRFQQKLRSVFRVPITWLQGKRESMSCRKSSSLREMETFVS
Test: not given
Type of assay: cell-based. To be noted: cho-k1.
`O=S(=O)([O-])CCS.[Na+]` [MESNA]: the IC50 result is given as “Not Active”.
Still for that read-out and setting: then `C#C[C@]1(O)CC[C@H]2[C@@H]3CCc4cc(OC)ccc4[C@H]3CC[C@@]21C` [MESTRANOL], with “Not Active”; and `CC(=O)Nc1cccc(O)c1` [METACETAMOL], with “Not Active”.
With `Cc1ncc([N+](=O)[O-])n1CCO` [METRONIDAZOLE], the IC50 entry is “Not Active”.
Still for that read-out and setting: in the case of `CC(C)(C(=O)c1cccnc1)c1cccnc1` [METYRAPONE] it was “Not Active”.

For another assay, the target named is T2, B2 bradykinin receptor (Homo sapiens, UniProt P30411). Also: in other assays of this panel Not Active means under 50% inhibition at 10 µM.
T2 sequence (P30411 whole entry): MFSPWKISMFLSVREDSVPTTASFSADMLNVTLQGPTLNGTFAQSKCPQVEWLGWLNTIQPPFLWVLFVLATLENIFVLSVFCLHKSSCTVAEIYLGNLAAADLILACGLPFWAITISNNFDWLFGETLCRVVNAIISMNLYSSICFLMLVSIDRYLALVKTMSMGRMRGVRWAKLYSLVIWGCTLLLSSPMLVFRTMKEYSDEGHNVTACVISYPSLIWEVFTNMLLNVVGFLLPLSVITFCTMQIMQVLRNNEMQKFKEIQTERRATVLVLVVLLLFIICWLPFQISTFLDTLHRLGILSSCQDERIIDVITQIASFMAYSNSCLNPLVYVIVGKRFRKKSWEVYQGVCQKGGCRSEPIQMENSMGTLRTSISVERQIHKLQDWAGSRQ
Test: not given
Type of assay: cell membranes, Membrane. Conditions: chem-1.
`O=S(=O)([O-])CCS.[Na+]` [MESNA]: the IC50 result is on record as “Not Active”.
The same measure, in the same setting: in the case of `C#C[C@]1(O)CC[C@H]2[C@@H]3CCc4cc(OC)ccc4[C@H]3CC[C@@]21C` [MESTRANOL] it was “Not Active”; in that of `CC(=O)Nc1cccc(O)c1` [METACETAMOL], “Not Active”; in that of `Cc1ncc([N+](=O)[O-])n1CCO` [METRONIDAZOLE], “Not Active”.
In the case of `CC(C)(C(=O)c1cccnc1)c1cccnc1` [METYRAPONE], the IC50 entry is recorded as “Not Active”.

Another assay has as its target T3, C-C chemokine receptor type 4 (Homo sapiens, UniProt P51679). Also: in other assays of this panel Not Active means under 50% inhibition at 10 µM.
T3 sequence (P51679 whole entry): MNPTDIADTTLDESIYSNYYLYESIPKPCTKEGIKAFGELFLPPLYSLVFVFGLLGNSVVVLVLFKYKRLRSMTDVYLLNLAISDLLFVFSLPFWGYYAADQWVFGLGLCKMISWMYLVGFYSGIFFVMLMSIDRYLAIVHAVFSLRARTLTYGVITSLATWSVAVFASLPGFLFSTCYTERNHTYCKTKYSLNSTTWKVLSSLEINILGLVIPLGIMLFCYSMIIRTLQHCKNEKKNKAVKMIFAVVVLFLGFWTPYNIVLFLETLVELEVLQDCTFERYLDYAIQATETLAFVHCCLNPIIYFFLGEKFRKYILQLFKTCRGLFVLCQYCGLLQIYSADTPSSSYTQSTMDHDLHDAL
Test: not given
The format is cell membranes, Membrane. To be noted: chem-1.
Regarding `O=S(=O)([O-])CCS.[Na+]` [MESNA], the IC50 result is reported as “Not Active”.
For the molecule `C#C[C@]1(O)CC[C@H]2[C@@H]3CCc4cc(OC)ccc4[C@H]3CC[C@@]21C` [MESTRANOL], the IC50 result is reported as “Not Active”.
As to `CC(=O)Nc1cccc(O)c1` [METACETAMOL], the IC50 result is on record as “Not Active”.
Still for that read-out and setting: in the case of `Cc1ncc([N+](=O)[O-])n1CCO` [METRONIDAZOLE] it was “Not Active”; in that of `CC(C)(C(=O)c1cccnc1)c1cccnc1` [METYRAPONE], “Not Active”.

Tested on in another assay: not listed separately
In words: DRUGMATRIX: Leukotriene, BLT (LTB4) radioligand binding (ligand: [3H]LTB4). Type of assay: cell membranes, Membrane. Conditions: u-937; Not Active = under 50% inhibition at 10 µM.
Consider `O=S(=O)([O-])CCS.[Na+]` [MESNA], for which the IC50 entry is “Not Active” and the Ki result was “Not Active”.
On to `C#C[C@]1(O)CC[C@H]2[C@@H]3CCc4cc(OC)ccc4[C@H]3CC[C@@]21C` [MESTRANOL], for which the IC50 result was “Not Active” and the Ki entry is “Not Active”.
Regarding `CC(=O)Nc1cccc(O)c1` [METACETAMOL], the IC50 result was “Not Active” and the Ki entry was “Not Active”.
Regarding `Cc1ncc([N+](=O)[O-])n1CCO` [METRONIDAZOLE], the IC50 entry is reported as “Not Active” and the Ki entry is recorded as “Not Active”.
Regarding `CC(C)(C(=O)c1cccnc1)c1cccnc1` [METYRAPONE], the IC50 result is “Not Active” and the Ki entry is “Not Active”.

For another assay, the target named is Platelet-activating factor receptor (Homo sapiens, UniProt P25105). Also: in other assays of this panel Not Active means under 50% inhibition at 10 µM.
Chain of Platelet-activating factor receptor (P25105 whole entry): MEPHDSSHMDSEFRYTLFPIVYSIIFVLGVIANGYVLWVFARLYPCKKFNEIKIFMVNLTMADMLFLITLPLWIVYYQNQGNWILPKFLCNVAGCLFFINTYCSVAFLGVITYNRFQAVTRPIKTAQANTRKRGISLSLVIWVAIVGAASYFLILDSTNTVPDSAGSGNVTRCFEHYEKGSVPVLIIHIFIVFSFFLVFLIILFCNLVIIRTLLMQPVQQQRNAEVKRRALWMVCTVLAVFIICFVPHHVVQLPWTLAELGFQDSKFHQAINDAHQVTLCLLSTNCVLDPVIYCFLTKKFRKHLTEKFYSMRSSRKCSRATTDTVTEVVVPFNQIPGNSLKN
Test: not given
The format is tissue-based.
Details: not given
On to `O=S(=O)([O-])CCS.[Na+]` [MESNA], for which the IC50 result is given as “Not Active”.
For `C#C[C@]1(O)CC[C@H]2[C@@H]3CCc4cc(OC)ccc4[C@H]3CC[C@@]21C` [MESTRANOL], the IC50 result is given as “Not Active”.
On to `CC(=O)Nc1cccc(O)c1` [METACETAMOL], for which the IC50 result is listed as “Not Active”.
For `Cc1ncc([N+](=O)[O-])n1CCO` [METRONIDAZOLE], the IC50 result was “Not Active”.
Consider `CC(C)(C(=O)c1cccnc1)c1cccnc1` [METYRAPONE], for which the IC50 entry is recorded as “Not Active”.

For a further assay, the target named is T4, Angiotensin-converting enzyme (Oryctolagus cuniculus, UniProt P12822).
T4 sequence (P12822 whole entry): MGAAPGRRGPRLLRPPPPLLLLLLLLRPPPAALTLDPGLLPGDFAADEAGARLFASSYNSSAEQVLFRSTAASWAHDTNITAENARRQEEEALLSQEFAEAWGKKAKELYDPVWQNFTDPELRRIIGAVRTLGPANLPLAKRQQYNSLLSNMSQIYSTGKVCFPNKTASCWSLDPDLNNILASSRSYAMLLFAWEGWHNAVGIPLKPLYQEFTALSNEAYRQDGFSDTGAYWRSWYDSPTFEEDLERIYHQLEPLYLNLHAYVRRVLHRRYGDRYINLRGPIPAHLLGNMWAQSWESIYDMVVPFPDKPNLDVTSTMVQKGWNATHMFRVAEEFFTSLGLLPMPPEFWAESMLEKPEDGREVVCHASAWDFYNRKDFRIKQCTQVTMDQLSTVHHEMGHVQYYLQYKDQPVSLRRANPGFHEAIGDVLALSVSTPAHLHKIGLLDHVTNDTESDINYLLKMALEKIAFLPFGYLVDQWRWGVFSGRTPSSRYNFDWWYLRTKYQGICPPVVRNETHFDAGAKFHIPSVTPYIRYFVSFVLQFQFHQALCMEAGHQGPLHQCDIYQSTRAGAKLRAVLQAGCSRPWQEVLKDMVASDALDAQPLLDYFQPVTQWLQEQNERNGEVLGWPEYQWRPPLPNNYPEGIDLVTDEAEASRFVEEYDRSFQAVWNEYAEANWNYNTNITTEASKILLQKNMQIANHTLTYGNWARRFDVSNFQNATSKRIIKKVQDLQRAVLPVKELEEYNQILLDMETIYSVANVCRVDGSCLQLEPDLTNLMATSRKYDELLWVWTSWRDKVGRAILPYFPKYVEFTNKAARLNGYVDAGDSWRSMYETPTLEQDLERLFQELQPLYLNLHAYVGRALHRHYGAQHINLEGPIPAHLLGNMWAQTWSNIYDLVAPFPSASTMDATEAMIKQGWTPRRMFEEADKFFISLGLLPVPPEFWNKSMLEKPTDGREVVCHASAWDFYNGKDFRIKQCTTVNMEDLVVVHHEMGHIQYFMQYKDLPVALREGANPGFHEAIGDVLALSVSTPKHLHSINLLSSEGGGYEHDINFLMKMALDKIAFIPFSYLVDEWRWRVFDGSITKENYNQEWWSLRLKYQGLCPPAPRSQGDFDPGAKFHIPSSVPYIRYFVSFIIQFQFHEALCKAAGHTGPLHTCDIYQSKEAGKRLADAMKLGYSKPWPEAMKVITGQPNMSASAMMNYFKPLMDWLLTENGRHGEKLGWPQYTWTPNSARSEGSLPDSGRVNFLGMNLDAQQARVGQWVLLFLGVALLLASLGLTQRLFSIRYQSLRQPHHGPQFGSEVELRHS
Test: not given
Type of assay: tissue-based, Lung.
Details: not given
As to `O=S(=O)([O-])CCS.[Na+]` [MESNA], the IC50 result was “Not Active”.
In the case of `C#C[C@]1(O)CC[C@H]2[C@@H]3CCc4cc(OC)ccc4[C@H]3CC[C@@]21C` [MESTRANOL], the IC50 entry was “Not Active”.
Consider `CC(=O)Nc1cccc(O)c1` [METACETAMOL], for which the IC50 result is recorded as “Not Active”.
Still for that read-out and setting: in the case of `Cc1ncc([N+](=O)[O-])n1CCO` [METRONIDAZOLE] it was “Not Active”; in that of `CC(C)(C(=O)c1cccnc1)c1cccnc1` [METYRAPONE], “Not Active”.

A further assay concerns the target Mitogen-activated protein kinase 3 (Homo sapiens, UniProt P27361). In words: DRUGMATRIX: Protein Serine/Threonine Kinase, ERK1 enzyme inhibition (substrate: Myelin Basic Protein). Conditions: Not Active = under 50% inhibition at 10 µM. Set-up: species or system Escherichia coli.
As for `O=S(=O)([O-])CCS.[Na+]` [MESNA], the IC50 result was “Not Active”.
As to `C#C[C@]1(O)CC[C@H]2[C@@H]3CCc4cc(OC)ccc4[C@H]3CC[C@@]21C` [MESTRANOL], the IC50 result was “Not Active”.
On to `CC(=O)Nc1cccc(O)c1` [METACETAMOL], for which the IC50 entry is reported as “Not Active”.
Still for that read-out and setting: in the case of `Cc1ncc([N+](=O)[O-])n1CCO` [METRONIDAZOLE] it was “Not Active”; in that of `CC(C)(C(=O)c1cccnc1)c1cccnc1` [METYRAPONE], “Not Active”.
